For assay [1], the target named is T1, B1R receptor of rats (rB1R) (Rattus norvegicus, UniProt P97583).
T1 construct: host or cells: CHO K1 cells
T1 sequence (P97583 1-337): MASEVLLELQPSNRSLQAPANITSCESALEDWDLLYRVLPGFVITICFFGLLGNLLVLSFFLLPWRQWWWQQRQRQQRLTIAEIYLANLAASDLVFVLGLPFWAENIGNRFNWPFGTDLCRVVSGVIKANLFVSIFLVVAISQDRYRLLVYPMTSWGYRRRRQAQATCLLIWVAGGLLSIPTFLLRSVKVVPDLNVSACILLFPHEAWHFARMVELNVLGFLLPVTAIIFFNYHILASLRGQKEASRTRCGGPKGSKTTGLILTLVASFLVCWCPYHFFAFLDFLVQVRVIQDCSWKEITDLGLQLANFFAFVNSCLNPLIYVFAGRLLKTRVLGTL
Nature of the assay: FLIPR Ca2+ assay on rat bradykinin 1 receptor (CHO K1 rB1R cells). In kind it is cell-based. The settings on record: test substance 10 μM; CHO K1 cells with B1R gene of rats; agonist Des-Arg9-bradykinin 100 nM; compared to maximum achievable inhibition. In a few lines:
(§1)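 CHO K1 cells stably expressing human or rat B1R were loaded with Fluo-4 and tested at 10 μM compound. Ca²⁺ signal was read in FLIPR as % activation versus agonist. After 10 min, agonist was added (hB1R: Lys-Des-Arg9-bradykinin 0.5 nM; rB1R: Des-Arg9-bradykinin 100 nM), and % inhibition was taken relative to maximum achievable inhibition.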

Assay [2] concerns the target T2, human B1R receptor (hB1R) (Homo sapiens, UniProt P46663).
T2 construct: host or cells: CHO K1 cells
T2 sequence (P46663 1-353): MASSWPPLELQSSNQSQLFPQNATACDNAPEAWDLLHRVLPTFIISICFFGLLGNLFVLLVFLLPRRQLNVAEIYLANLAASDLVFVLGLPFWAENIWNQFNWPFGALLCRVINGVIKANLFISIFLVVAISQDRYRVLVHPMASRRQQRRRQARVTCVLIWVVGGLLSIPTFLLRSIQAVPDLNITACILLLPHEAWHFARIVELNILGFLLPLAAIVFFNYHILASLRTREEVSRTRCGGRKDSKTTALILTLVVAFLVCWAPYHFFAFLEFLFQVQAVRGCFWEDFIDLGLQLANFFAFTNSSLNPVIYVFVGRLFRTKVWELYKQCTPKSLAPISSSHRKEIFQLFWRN
Nature of the assay: FLIPR Ca2+ assay on human bradykinin 1 receptor (CHO K1 hB1R cells). In kind it is cell-based. The settings on record: test substance 10 μM; CHO K1 cells with human B1R gene; agonist Lys-Des-Arg9-bradykinin 0.5 nM; compared to maximum achievable inhibition. The method in brief:
as §1

SMILES strings stand for the structures.

As for `COc1c(C)cc(S(=O)(=O)N(C)CCOCC(=O)N2CCn3c(CN(C)C)ccc3C2Cc2ccccc2)c(C)c1C` (stereo not shown) [Example 109, N-(2-(2-(1-benzyl-6-((dimethylamino)methyl)-3,4-dihydropyrrolo[1,2-a]pyrazin-2(1H)-yl)-2-oxoethoxy)ethyl)-4-methoxy-N,2,3,5-tetramethylbenzene-sulfonamide], the inhibition – broadly, the drop in the measured response relative to a control, in per cent – at 10 µM was found to be 101% in assay [1] and 102% in assay [2].

Turning to `CCCCC1c2ccc(CN(C)C)n2CCN1C(=O)COCCN(CC(C)C)S(=O)(=O)c1c(C)cc(OC)c(C)c1C` (stereo not shown) [Example 97, N-(2-(2-(1-butyl-6-((dimethylamino)methyl)-3,4-dihydropyrrolo[1,2-a]pyrazin-2(1H)-yl)-2-oxoethoxy)ethyl)-N-isobutyl-4-methoxy-2,3,6-trimethylbenzene-sulfonamide], the inhibition at 10 µM in assay [1] was 102%; in assay [2], 89%.

`COc1cc(C)c(S(=O)(=O)N(C)CCOCC(=O)N2CCn3cccc3C2c2ccc(C(C)(C)C)cc2)c(C)c1` (stereo not shown) [Example 64, N-(2-(2-(1-(4-tert-butylphenyl)-3,4-dihydropyrrolo[1,2-a]pyrazin-2(1H)-yl)-2-oxoethoxy)ethyl)-4-methoxy-N,2,6-trimethylbenzenesulfonamide]: the inhibition at 10 µM was 99% in assay [1] and 100% in assay [2].

With `O=C(C[C@@H](NS(=O)(=O)c1ccc2ccccc2c1)c1ccccc1)N1CCn2cc(CN3CCCCC3)nc2C1` [Example 4, (R)-N-(3-oxo-1-phenyl-3-(2-(piperidin-1-ylmethyl)-5,6-dihydroimidazo[1,2-a]pyrazin-7(8H)-yl)propyl)naphthalene-2-sulfonamide], the inhibition at 10 µM in assay [1] was 98%; in assay [2] it was 102%.

For `COc1cc(C)c(S(=O)(=O)N(CCOCC(=O)N2CCn3c(CN(C)C)ccc3C2c2cccs2)Cc2ccccc2)c(C)c1C` (stereo not shown) [Example 121, N-benzyl-N-(2-(2-(6-((dimethylamino)methyl)-1-(thiophen-2-yl)-3,4-dihydropyrrolo[1,2-a]pyrazin-2(1H)-yl)-2-oxoethoxy)ethyl)-4-methoxy-2,3,6-trimethylbenzene-sulfonamide], the inhibition at 10 µM in assay [1] stood at 102%; in assay [2], 101%.

In the case of `COc1cc(C)c(S(=O)(=O)N(C)CCOCC(=O)N2CCn3c(ccc3-c3cccnc3)C2)c(C)c1` [Example 166, 4-Methoxy-N,2,6-trimethyl-N-(2-(2-oxo-2-(6-(pyridin-3-yl)-3,4-dihydropyrrolo[1,2-a]pyrazin-2(1H)-yl)ethoxy)ethyl)benzenesulfonamide], the values for the inhibition at 10 µM in assay [1] and in assay [2] were 99% and 100%, respectively.

`COc1c(C)cc(S(=O)(=O)N(C)CCOCC(=O)N2CCn3cccc3C2c2cccc(C(F)(F)F)c2)c(C)c1C` (stereo not shown) [Example 37, 4-methoxy-N,2,3,5-tetramethyl-N-(2-(2-oxo-2-(1-(3-(trifluoromethyl)phenyl)-3,4-dihydropyrrolo[1,2-a]pyrazin-2(1H)-yl)ethoxy)ethyl)benzenesulfonamide]: the inhibition at 10 µM in assay [1] turned out to be 72%; in assay [2] it was 38%.

With `COc1cc(C)c(S(=O)(=O)N(CCOCC(=O)N2CCn3cccc3C2C)Cc2ccccc2)c(C)c1C` (stereo not shown) [Example 40, N-benzyl-4-methoxy-2,3,6-trimethyl-N-(2-(2-(1-methyl-3,4-dihydropyrrolo[1,2-a]pyrazin-2(1H)-yl)-2-oxoethoxy)ethyl)benzenesulfonamide], the figures for the inhibition at 10 µM in assay [1] and in assay [2] were 95% and 34%, respectively.

With `COc1cccc(C2c3cccn3CCN2C(=O)COCCN(C)S(=O)(=O)c2c(C)cc(OC)cc2C)c1` (stereo not shown) [Example 62, 4-methoxy-N-(2-(2-(1-(3-methoxyphenyl)-3,4-dihydropyrrolo[1,2-a]pyrazin-2(1H)-yl)-2-oxoethoxy)ethyl)-N,2,6-trimethylbenzenesulfonamide], the values for the inhibition at 10 µM in assay [1] and in assay [2] were 98% and 101%, respectively.

For `COc1cc(C)c(S(=O)(=O)N(CCOCC(=O)N2CCn3cccc3C2c2cccs2)CC(C)C)c(C)c1C` (stereo not shown) [Example 25, N-isobutyl-4-methoxy-2,3,6-trimethyl-N-(2-(2-oxo-2-(1-(thiophen-2-yl)-3,4-dihydropyrrolo[1,2-a]pyrazin-2(1H)-yl)ethoxy)ethyl)benzenesulfonamide], the inhibition at 10 µM in assay [1] was found to be 98%; in assay [2], 55%.

Take `Cc1cc(C)c(S(=O)(=O)N(C)CCOCC(=O)N2CCn3cccc3C2c2ccc(C)c(C)c2)c(C)c1` (stereo not shown) [Example 72, N-(2-(2-(1-(3,4-dimethylphenyl)-3,4-dihydropyrrolo[1,2-a]pyrazin-2(1H)-yl)-2-oxoethoxy)ethyl)-N,2,4,6-tetramethylbenzenesulfonamide]: the inhibition at 10 µM is 71% in assay [1] and 97% in assay [2].

With `CCC1c2cccn2CCN1C(=O)COCCN(C)S(=O)(=O)c1c(C)cc(OC)cc1C` (stereo not shown) [Example 135, N-(2-(2-(1-ethyl-3,4-dihydropyrrolo[1,2-a]pyrazin-2(1H)-yl)-2-oxoethoxy)ethyl)-4-methoxy-N,2,6-trimethylbenzenesulfonamide], the inhibition at 10 µM in assay [1] was found to be 102%; in assay [2], 104%.

In the case of `COc1cc(C)c(S(=O)(=O)N(CCOCC(=O)N2CCn3cccc3C2C(C)(C)C)CC(C)C)c(C)c1C` (stereo not shown) [Example 18, N-(2-(2-(1-tert-butyl-3,4-dihydropyrrolo[1,2-a]pyrazin-2(1H)-yl)-2-oxoethoxy)ethyl)-N-isobutyl-4-methoxy-2,3,6-trimethylbenzenesulfonamide], the inhibition at 10 µM in assay [1] is 98%; in assay [2], 82%.

In the case of `COc1cc(C)c(S(=O)(=O)N(C)CCOCC(=O)N2CCn3cccc3C2c2ccc(F)c(F)c2)c(C)c1` (stereo not shown) [Example 57, N-(2-(2-(1-(3,4-difluorophenyl)-3,4-dihydropyrrolo[1,2-a]pyrazin-2(1H)-yl)-2-oxoethoxy)ethyl)-4-methoxy-N,2,6-trimethylbenzenesulfonamide], the inhibition at 10 µM in assay [1] worked out at 99%; in assay [2] it was 102%.

`COc1c(C)cc(S(=O)(=O)N(C)CCOCC(=O)N2CCn3cccc3C2c2ccc(F)c(F)c2)c(C)c1C` (stereo not shown) [Example 33, N-(2-(2-(1-(3,4-difluorophenyl)-3,4-dihydropyrrolo[1,2-a]pyrazin-2(1H)-yl)-2-oxoethoxy)ethyl)-4-methoxy-N,2,3,5-tetramethylbenzenesulfonamide]: the inhibition at 10 µM in assay [1] came out at 66%; in assay [2], 71%.

As to `COc1cc(C)c(S(=O)(=O)N(C)CCOCC(=O)N2CCn3cccc3C2c2ccc(Cl)nc2)c(C)c1` (stereo not shown) [Example 55, N-(2-(2-(1-(6-chloropyridin-3-yl)-3,4-dihydropyrrolo-[1,2-a]pyrazin-2(1H)-yl)-2-oxoethoxy)ethyl)-4-methoxy-N,2,6-trimethylbenzenesulfonamide], the inhibition at 10 µM in assay [1] is 99%; in assay [2] it was 100%.

Regarding `COc1cc(C)c(S(=O)(=O)N(C)CCOCC(=O)N2CCn3cccc3C2c2cccnc2)c(C)c1` (stereo not shown) [Example 54, 4-methoxy-N,2,6-trimethyl-N-(2-(2-oxo-2-(1-(pyridin-3-yl)-3,4-dihydropyrrolo[1,2-a]pyrazin-2(1H)-yl)ethoxy)ethyl)benzenesulfonamide], the inhibition at 10 µM in assay [1] was determined as 93%; in assay [2], 98%.

As to `COc1cc(C)c(S(=O)(=O)N(C)CCOCC(=O)N2CCn3cccc3C2c2ccc(C(C)(C)C)cc2)c(C)c1C` (stereo not shown) [Example 90, N-(2-(2-(1-(4-tert-butylphenyl)-3,4-dihydropyrrolo[1,2-a]pyrazin-2(1H)-yl)-2-oxoethoxy)ethyl)-4-methoxy-N,2,3,6-tetramethylbenzenesulfonamide], the inhibition at 10 µM was found to be 66% in assay [1] and 47% in assay [2].

Take `COc1c(C)cc(S(=O)(=O)N(C)CCOCC(=O)N2CCn3c(CN(C)C)ccc3C2c2cccs2)c(C)c1C` (stereo not shown) [Example 112, N-(2-(2-(6-((dimethylamino)methyl)-1-(thiophen-2-yl)-3,4-dihydropyrrolo[1,2-a]pyrazin-2(1H)-yl)-2-oxoethoxy)ethyl)-4-methoxy-N,2,3,5-tetramethylbenzene-sulfonamide]: the inhibition at 10 µM in assay [1] and in assay [2] was 101% in each case.

In the case of `O=C(CC(NS(=O)(=O)c1ccc2ccccc2c1)c1ccccc1)N1CCn2c(ccc2-c2cccnc2)C1` (stereo not shown) [Example 167, N-(3-Oxo-1-phenyl-3-(6-(pyridin-3-yl)-3,4-dihydropyrrolo[1,2-a]pyrazin-2(1H)-yl)propyl)naphthalene-2-sulfonamide], the inhibition at 10 µM in assay [1] is 70%; in assay [2], 32%.

These data come from patent US8263598B2, “Substituted sulfonamide compounds” (Gruenenthal GmbH, priority 2008, dated 2012).
